Measurements taken from patent US7560229B2, “Methods of use of the enzymes of mycothiol synthesis” (priority 2002, dated 2009).
Values after ≈ are worked out from the molar mass of the structure shown. Read-outs that look alike come from different tables or passages of the source.

Columns and labels:
[1] = test system: M. smegmatis mc^2155 (wild type); experiment: Disk assay, redox cycling agents, zone of inhibition; format: cell-based
Experimental: (§1) To determine sensitivity to redox cycling agents, disk assays were performed. Briefly, cells were grown to mid-log phase and a lawn of cells was plated onto PBT or LB plates supplemented with appropriate antibiotics. Various amounts of redox-cycling agents plumbagin, and […] menadione and nitrofurantoin were added to the disk in 10 μl volume and allowed to dry. The disks were placed onto the lawn of cells and incubated 2-3 days.

M. smegmatis mutant Tn1 [2] = format: cell-based
Experimental: as §1

M. smegmatis mutant I64 [3] = format: cell-based
Experimental: as §1

M. smegmatis mutant Tn2 [4] = format: cell-based
Experimental: as §1

[5] = test system: M. smegmatis transposon mutant Tn1 (MshC deficient); format: cell-based; conditions: Tn1, from MIC
Experimental: (§2) To test this hypothesis, Tn1, Tn2, and I64 were grown on PBT plates supplemented with increasing amounts of the alkylating agents mBBr, iodoacetamide, and 1-chloro-2,4-dinitrobenzene (CDNB). The alkylating agents were poured into the molten agar.

[6] = test system: M. smegmatis transposon mutant Tn2 (MshC deficient); format: cell-based; conditions: Tn2, from MIC
Experimental: as §2

[7] = test system: M. smegmatis chemical mutant I64 (MshC deficient); format: cell-based; conditions: I64, from MIC
Experimental: as §2

N[C@@H](CS)C(=O)O = experiment: purified protein, by the assay type; conditions: other: [ATP]=1 mM, [GlcN-Ins]=300 μM, Cys 5-400 μM; pH 7.5
Experimental: (§4) A minor modification of the protocol described by Anderberg et al (supra) was used for routine measurement of ATP-dependent ligase activity. The enzyme activity was assayed in a final volume of 25 μL containing 12.5 μL of the ligase in different dilutions, 50 μM GlcN-Ins, 100 μM Cys (Calbiochem), 1 mM ATP (Sigma), 1 mM MgCl2 (Fisher), 1 mM DTT (Calbiochem), 25 mM N-2-hydroxyethylpiperazine-N′-2-ethanesulfonic acid (HEPES) (Sigma), pH 7.5, and 35 μM each of the protease inhibitors (Sigma) N-α-p-tosyl-L-phenylalanylchloromethyl ketone and N-α-p-tosyl-L-lysinechloromethyl ketone. The mixture was incubated at 37° C. for 30 min. The assay was terminated by addition of 25 μL of 8 mM mBBr in acetonitrile and heating the mixture at 60° C. for 5 min to derivatize the thiols. The derivatization was quenched with the addition of 150 μl of 10 mM methanesulfonic acid and vortexing. HPLC analysis of CySmB-GlcN-Ins and CySmB was carried out by HPLC using a Beckman Ultrasphere IP (250×4.6 mm) analytical column fitted with a Brownley OD-GU 5 μ C-18 cartridge using the following linear gradients: 0 min., 100% A (0.1% TFA in water); 10 min, 100% A; 30 min, 80% A; 33 min, 100% B (7.5% methanol in acetonitrile); 36 min, 100% B; 38 min, 100% A; 60 min, 100% A (reinjection). The flow rate was 1 mL/min. and the fluorescence detection was accomplished with a 370 nm excitation filter and a 418-700 nm emission filter. The Vmax and Km values were calculated by least-squares analysis of Eadie-Hofstee plots with initial rate data using KaleidaGraph 3.5 (Synergy Software).

M. smegmatis mutant Tn1 [8] = test system: M. smegmatis mutant Tn1
Experimental: (§3) Peroxide sensitivity was determined by incubating cells (2.5×10^7 per ml) at 37° C. in Middlebrook 7H9 medium with 0.4% glucose and 0.05% TWEEN® 80 containing hydrogen peroxide at the desired level for 2 hours with shaking. Cells were diluted in fresh medium and plated on 7H10 agar. Colonies were counted when they achieved a diameter of 1-2 mm, which required 4-5 days for the wild type strain and up to 10 days for MSH-deficient mutant strains.

[9] = test system: M. smegmatis mc^2155 (wild type)
Experimental: as §3

M. smegmatis mutant I64 [10] = conditions: I64, FIG. 6
Experimental: as §3

M. smegmatis mutant Tn2 [11] = test system: M. smegmatis mutant Tn2
Experimental: as §3

[12] = biological target: M. smegmatis Cys:GlcN-Ins ligase (MshC) (Mycolicibacterium smegmatis, UniProt A0QZY0); experiment: ATP-dependent Cys:GlcN-Ins ligase assay, substrate kinetics; conditions: [ATP]=1 mM, [Cys]=100 μM
Experimental: as §4

M. smegmatis mutant I64 [13] = experiment: Antibiotic sensitivity test (MIC); format: cell-based
[14] = test system: M. smegmatis chemical mutant 49; experiment: Isoniazid MIC by Estrip; format: cell-based; conditions: Mycolicibacterium smegmatis
[15] = test system: M. smegmatis parent strain mc^2155; experiment: Isoniazid MIC by Estrip; format: cell-based; conditions: Mycolicibacterium smegmatis; mc^2155, Estrip, 2-3 days at 37° C.
M. smegmatis mutant 49 = conditions: cited from earlier work
[16] = test system: M. smegmatis complemented strain 49 (49::pAL0486); experiment: Isoniazid MIC by Estrip; format: cell-based; conditions: Mycolicibacterium smegmatis
[17] = test system: M. smegmatis complemented mshA::Tn5 (mshA::Tn5 pAL0486); experiment: Isoniazid MIC by Estrip; format: cell-based; conditions: Mycolicibacterium smegmatis
[18] = test system: M. smegmatis transposon mutant mshA::Tn5; experiment: Isoniazid MIC by Estrip; format: cell-based; conditions: Mycolicibacterium smegmatis
M. smegmatis mc^2155 = conditions: mc^2155, plating on antibiotic containing media, found earlier; cited from earlier work

M. smegmatis Cys:GlcN-Ins ligase (MshC), sequence (A0QZY0 whole entry): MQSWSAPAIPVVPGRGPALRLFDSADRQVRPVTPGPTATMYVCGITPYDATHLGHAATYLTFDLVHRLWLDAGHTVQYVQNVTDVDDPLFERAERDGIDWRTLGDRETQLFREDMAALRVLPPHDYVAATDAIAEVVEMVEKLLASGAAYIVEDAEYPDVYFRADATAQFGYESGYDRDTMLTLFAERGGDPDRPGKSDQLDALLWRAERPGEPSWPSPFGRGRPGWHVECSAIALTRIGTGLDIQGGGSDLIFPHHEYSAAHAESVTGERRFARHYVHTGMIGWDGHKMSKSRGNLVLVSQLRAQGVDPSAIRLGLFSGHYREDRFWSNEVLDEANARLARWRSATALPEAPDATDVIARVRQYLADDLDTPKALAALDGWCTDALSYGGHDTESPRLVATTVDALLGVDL

## CC1=CC(=O)c2ccccc2C1=O [Menadione, menadione]
[1]; 0.1 μmol agent on disk
  Zone of Inhibition: 9.7 ± 0.3 mm
[1]; 0.5 μmol agent on disk
  Zone of Inhibition: 19.7 ± 0.9 mm
M. smegmatis mutant Tn1 [2]; Tn1, 0.1 μmol agent on disk
  Zone of Inhibition: 20.7 ± 3.8 mm
M. smegmatis mutant Tn1 [2]; Tn1, 0.5 μmol agent on disk
  Zone of Inhibition: 31.3 ± 1.3 mm
M. smegmatis mutant I64 [3]; I64, 0.1 μmol agent on disk
  Zone of Inhibition: 8.7 ± 0.7 mm
M. smegmatis mutant I64 [3]; I64, 0.5 μmol agent on disk
  Zone of Inhibition: 26.7 ± 0.9 mm
M. smegmatis mutant Tn2 [4]; Tn2, 0.1 μmol agent on disk
  Zone of Inhibition: 15.3 ± 2.0 mm
M. smegmatis mutant Tn2 [4]; Tn2, 0.5 μmol agent on disk
  Zone of Inhibition: 16.4 ± 1.9 mm

## Cc1c(C)n2c(CBr)c(C)c(=O)n2c1=O [mBBr, monobromobimane]
[5]
  increase in sensitivity compared to wild type mc^2155: 4 fold
[6]
  increase in sensitivity compared to wild type mc^2155: 4 fold
[7]
  increase in sensitivity compared to wild type mc^2155: more susceptible

## M. smegmatis Cys:GlcN-Ins ligase (MshC) (Mycolicibacterium smegmatis MC2 155)
N[C@@H](CS)C(=O)O
  Km: 40 ± 3 µM
  Vmax: 83 ± 3 nmol/min/mg

## OO [hydrogen peroxide]
M. smegmatis mutant Tn1 [8]; Tn1, 2 hours at 37° C., FIG. 6
  H2O2 concentration the strain is unable to tolerate: ≤ 1 MM
M. smegmatis mutant Tn1 [8]; Tn1, FIG. 6
  times more sensitive to hydrogen peroxide than the wild type strain: about 10 times
[9]
  H2O2 concentration at which the strain can survive: 10 mM
M. smegmatis mutant I64 [10]
  tolerance to peroxide stress: intermediate between wild type mc^2155 and the transposon mutants
M. smegmatis mutant Tn2 [11]; Tn2, 2 hours at 37° C., FIG. 6
  H2O2 concentration the strain is unable to tolerate: ≤ 1 MM
M. smegmatis mutant Tn2 [11]; Tn2, FIG. 6
  times more sensitive to hydrogen peroxide than the wild type strain: about 10 times

## N[C@H]1[C@@H](OC2[C@H](O)[C@H](O)C(O)[C@H](O)[C@H]2O)O[C@H](CO)[C@@H](O)[C@@H]1O (stereo partly drawn) [GlcN-Ins, 1D-myo-inosityl 2-amino-2-deoxy-α-D-glucopyranoside]
[12]
  Vmax (GlcN-Ins varied): 90 ± 7 nmol/min/mg
[12]; read-out: apparent Km for GlcN-Ins, GlcN-Ins 5-600 μM
  Km: 72 ± 9 µM

## CN(C)C(=O)/N=N/C(=O)N(C)C [Diamide, diamide]
[5]
  increase in sensitivity compared to wild type mc^2155: greater than 10 fold
[6]
  increase in sensitivity compared to wild type mc^2155: greater than 10 fold
[7]
  increase in sensitivity compared to wild type mc^2155: doubled

## O=C1CN(/N=C/c2ccc([N+](=O)[O-])o2)C(=O)N1 [Nitrofurantoin, nitrofurantoin]
[1]; 0.5 μmol agent on disk
  Zone of Inhibition: 4.7 ± 0.3 mm
[1]; 1.0 μmol agent on disk
  Zone of Inhibition: 6.0 ± 0.6 mm
M. smegmatis mutant Tn1 [2]; Tn1, 0.5 μmol agent on disk
  Zone of Inhibition: 10.7 ± 2.6 mm
M. smegmatis mutant Tn1 [2]; Tn1, 1.0 μmol agent on disk
  Zone of Inhibition: 14.0 ± 2.7 mm
M. smegmatis mutant I64 [3]; I64, 0.5 μmol agent on disk
  Zone of Inhibition: 5.0 ± 0.6 mm
M. smegmatis mutant I64 [3]; I64, 1.0 μmol agent on disk
  Zone of Inhibition: 8.7 ± 0.3 mm
M. smegmatis mutant Tn2 [4]; Tn2, 1.0 μmol agent on disk
  Zone of Inhibition: 35.0 ± 3.6 mm

## O=[N+]([O-])c1ccc(Cl)c([N+](=O)[O-])c1 [CDNB, 1-chloro-2,4-dinitrobenzene]
[5]
  increase in sensitivity compared to wild type mc^2155: 2-3 fold
[6]
  increase in sensitivity compared to wild type mc^2155: 2-3 fold

## NC(=O)CI [Iodoacetamide, iodoacetamide]
[5]
  increase in sensitivity compared to wild type mc^2155: two-fold
[6]
  increase in sensitivity compared to wild type mc^2155: 5 fold
[7]
  increase in sensitivity compared to wild type mc^2155: two-fold

## NNC(=O)c1ccncc1 [Isoniazid, isoniazid]
M. smegmatis mutant I64 [13]
  fold greater resistance than the wild type: 16 fold
[14]
  MIC: > 250 µg/mL
[15]
  MIC: 1 µg/mL (≈ 7.29 µM)
M. smegmatis mutant 49; mutant 49, plating on antibiotic containing media, found earlier
  MIC: > 50 µg/mL
M. smegmatis mutant 49; strain 49 (Newton et al. 1999)
  isoniazid concentration to which strain 49 is resistant: 100 μg isoniazid/ml
[16]
  MIC: 28 µg/mL (≈ 204 µM)
[17]
  MIC: 2.7 µg/mL (≈ 19.7 µM)
[18]
  MIC: > 250 µg/mL
M. smegmatis mc^2155
  MIC: 2 µg/mL (≈ 14.6 µM)

## CC1=CC(=O)c2c(O)cccc2C1=O [Plumbagin, plumbagin]
[1]; 0.005 μmol agent on disk
  Zone of Inhibition: 11.0 ± 1.0 mm
[1]; 0.01 μmol agent on disk
  Zone of Inhibition: 13.5 ± 0.5 mm
M. smegmatis mutant Tn1 [2]; Tn1, 0.005 μmol agent on disk
  Zone of Inhibition: 17.0 ± 0.6 mm
M. smegmatis mutant Tn1 [2]; Tn1, 0.01 μmol agent on disk
  Zone of Inhibition: 23.0 ± 1.2 mm
M. smegmatis mutant I64 [3]; I64, 0.005 μmol agent on disk
  Zone of Inhibition: 9.3 ± 0.9 mm
M. smegmatis mutant I64 [3]; I64, 0.01 μmol agent on disk
  Zone of Inhibition: 13.3 ± 1.9 mm
M. smegmatis mutant Tn2 [4]; Tn2, 0.005 μmol agent on disk
  Zone of Inhibition: 15.0 ± 0.0 mm
M. smegmatis mutant Tn2 [4]; Tn2, 0.01 μmol agent on disk
  Zone of Inhibition: 23.0 ± 1.0 mm
